What was measured:
[1] = system: CT-DNA; assay: UV-Vis absorption titration with CT-DNA; set-up: species or system calf; settings: intrinsic binding constant, Tris–HCl buffer pH 7.2
Source text: DNA-binding studies are important for the rational design and construction of new and more efficient drugs targeted to DNA.[42] The binding affinity of the ligands and their organoruthenium(II) complexes with CT-DNA can be measured by using UV-Vis spectroscopy. The UV-Vis absorption spectra of the free ligands and their complexes in the absence and presence of CT DNA are given in Fig. S25 ^† and 7. […] The decrease in absorbance with increase in concentration of CT-DNA may be due to the decrease in transition probabilities as a result of partial transfer of electrons from the π orbital of the DNA base pairs to the coupled π* orbital of the coordinated Schiff base to metal due to overlapping.[43] The extent of hypochromism in the charge transfer band is an indication of the strength of intercalative interaction.[43]
In order to compare the DNA-binding affinities of the ligands and their metal complexes quantitatively, their intrinsic binding constants Kbin were obtained according to eqn (S1). ^† The binding constant value was calculated from the plot of [DNA]/(εa − εf) versus [DNA] and the data were given in Table 3 (Fig. 8). […] This may be due to the presence of different substituents in the terminal nitrogen atom of the ligands.
Supplementary Information
All the experiments involving CT-DNA binding were carried out in deionised water with tris(hydroxymethyl)-aminomethane (Tris, 5 mM) and sodium chloride (50 mM) and adjusted to pH 7.2 with hydrochloric acid at room temperature. The concentration of CT-DNA was determined by UV absorbance at 260 nm. Solutions of CT-DNA in Tris-HCl buffer gave a ratio of UV absorbance at 260 and 280 nm, A260/A280, of approximately 1.9, […]
The molar absorption coefficient, ε260, was taken as 6600 M−1 cm−1.Various concentrations of CT-DNA (2-2.5 µM) was added to the complexes (25 µM dissolved in DMSO/Tris-HCl buffer, 1 % DMSO in the final solution). While measuring the absorption spectra, an equal amount of DNA was added to both the test and reference solutions to eliminate the absorbance of DNA itself. Control experiments with DMSO were performed and no change in the spectra of CT-DNA was observed. Absorption spectra were recorded after equilibrium at 20 °C for 10 min. The intrinsic binding constant K b was determined by using following equation(1) [DNA]/[εa-εf]) = [DNA]/[ε b-εf]+1/Kb[εb-εf] (S1)
The absorption coefficients εa, εf and εb correspond to Aobsd/[DNA], the extinction coefficient for the free compound and for the compound in the fully bound form respectively. The slope and the intercept of the linear fit of the plot of [DNA]/[εa −εf] versus [DNA] give […] and 1/Kb[εb−εf] respectively. The intrinsic binding constant Kb can be obtained from the ratio of the slope to the intercept. […]

[2] = molecular target: T1, BSA (Bos taurus, UniProt P02769); assay: Three-dimensional fluorescence spectra of BSA; format: binding, bovine; settings: BSA 10 μM + compound 10 μM, pH 7.4, 298 K
T1 construct: purchased HiMedia (Mumbai, India)
T1 sequence (P02769 25-607): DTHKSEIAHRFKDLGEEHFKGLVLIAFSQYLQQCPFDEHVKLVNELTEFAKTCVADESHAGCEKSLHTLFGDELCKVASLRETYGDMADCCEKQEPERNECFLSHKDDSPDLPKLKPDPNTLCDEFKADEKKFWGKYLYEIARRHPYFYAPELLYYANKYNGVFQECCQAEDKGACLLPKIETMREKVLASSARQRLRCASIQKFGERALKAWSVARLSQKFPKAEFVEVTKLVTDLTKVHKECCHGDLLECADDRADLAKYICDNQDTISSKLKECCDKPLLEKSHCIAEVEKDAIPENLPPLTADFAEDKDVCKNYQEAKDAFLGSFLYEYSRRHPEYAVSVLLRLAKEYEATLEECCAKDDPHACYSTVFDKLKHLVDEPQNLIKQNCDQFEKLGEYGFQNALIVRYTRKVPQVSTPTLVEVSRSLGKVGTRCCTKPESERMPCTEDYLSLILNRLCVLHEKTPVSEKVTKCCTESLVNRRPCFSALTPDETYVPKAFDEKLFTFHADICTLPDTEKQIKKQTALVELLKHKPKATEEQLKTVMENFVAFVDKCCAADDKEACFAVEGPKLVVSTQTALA
Source text: (§1) To investigate the micro environmental changes in BSA/HSA during interaction with the compounds, three dimensional fluorescence spectroscopic studies have been performed. The changes observed in 3D emission spectra and contour lines of serum albumins in the absence and presence of ligands and complexes are given in Fig. 15, 16, S34 and S35 in the ESI ^† and their corresponding characteristic parameters are provided in Table 5. The emission spectra of serum albumins such as BSA and HSA have shown three characteristic peaks – peaks A and C corresponds to first and second order Rayleigh scattering and peak B corresponds to the spectral characteristics of Trp and Tyr residues of proteins.[57] The emission intensity of Rayleigh first order scattering peak increased upon adding the compounds to serum albumins. […] The fluorescence intensity of peak ‘B’ corresponding to the tryptophan and tyrosine residues decreased with slight blue shift. From the results, it is inferred that the molecular microenvironment and conformational changes of protein occurred after interaction with the complexes and ligands.
Fig. 15 Three-dimensional fluorescence spectra of BSA in the absence and presence of ruthenium(II) complexes 1–4 (pH 7.4, 298 K, [BSA] = 10 μM, [complex] = 10 μM).
Fig. S34. Three-dimensional fluorescence spectra of BSA in the absence and presence of
(§2) ligands H 2L1-4 (pH 7.4, 298 K, [HSA] =10 µM, [Ligand] =10 µM) […]

[3] = molecular target: T2, HSA (Homo sapiens, UniProt P02768); assay: Three-dimensional fluorescence spectra of HSA; format: binding; settings: HSA 10 μM + compound 10 μM, pH 7.4, 298 K
T2 construct: purchased HiMedia (Mumbai, India)
T2 sequence (P02768 25-609): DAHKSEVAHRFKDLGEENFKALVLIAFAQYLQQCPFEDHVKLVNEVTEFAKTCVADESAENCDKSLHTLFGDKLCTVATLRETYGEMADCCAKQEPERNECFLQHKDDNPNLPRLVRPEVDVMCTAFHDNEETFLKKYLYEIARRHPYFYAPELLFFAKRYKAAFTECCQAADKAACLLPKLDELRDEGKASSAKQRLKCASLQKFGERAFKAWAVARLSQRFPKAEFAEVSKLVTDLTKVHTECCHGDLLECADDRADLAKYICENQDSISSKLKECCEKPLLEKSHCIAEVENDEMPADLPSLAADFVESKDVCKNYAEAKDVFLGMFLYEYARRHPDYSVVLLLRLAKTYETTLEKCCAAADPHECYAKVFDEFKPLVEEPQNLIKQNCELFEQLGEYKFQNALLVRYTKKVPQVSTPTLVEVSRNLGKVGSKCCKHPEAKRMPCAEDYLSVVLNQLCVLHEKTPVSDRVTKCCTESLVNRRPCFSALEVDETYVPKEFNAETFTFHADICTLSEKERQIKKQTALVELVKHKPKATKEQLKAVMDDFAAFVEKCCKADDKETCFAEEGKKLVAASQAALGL
Source text: as §1
Fig. 16 Three-dimensional fluorescence spectra of HSA in the absence and presence of ruthenium(II) complexes 1–4 (pH 7.4, 298 K, [HSA] = 10 μM, [complex] = 10 μM).
Fig. S35. Three-dimensional fluorescence spectra of HSA in the absence and presence of
as §2

[4] = DPPH radical scavenging assay; settings: in methanol
Description: (§3) It has been reported that free radical species such as reactive oxygen species (ROS), are involved in the pathogenesis of various diseases through effects on DNA directly and by acting as a tumour promoter.[59,60] The DPPH free radical scavenging activity of the ligands and complexes were studied and quantitatively antioxidant properties were determined by using phosphomolybdate method. We knew that the inhibitory effects of the tested compounds on DPPH radical are concentration dependent and the suppression ratio increases with increasing sample concentrations (Fig. S36 ^†). […] In the phosphomolybdenum assay, the antioxidant activity is expressed as the number of equivalents of ascorbic acid (Table 6). The total antioxidant activity of the compounds is in the following order complex 3 > complex 2 > complex 1 > complex 4 > H2L^3 > H2L^2 > H2L^1 > H2L^4 > ascorbic acid > [RuHClCO(PPh3)3]. The results concluded that the metal complexes are better antioxidants than their parent ligands which may be due to the chelation of the ligands to metal ion.[35] The radical scavenging ability of the new complexes is greater than that of few other reported ruthenium complexes, containing Schiff base ligands.[9]
(§4) The DPPH radical scavenging activity of the compounds have been carried out according to the reported method.[74] In this study, various concentrations of the experimental standard ascorbic acid, [RuHCl(CO)(PPh3)3], ligands (20–100 μM) and complexes (2–10 μM) in methanol were taken. Total antioxidant activity of the compounds was determined by the phosphomolybdate method.[75]

[5] = Total antioxidant capacity, phosphomolybdate method
Description: as §3, §4

SMILES | Binding constant Kbin [1] | Fluorescence peaks Intensity (F) [2] | Fluorescence peaks Peak position λex/λem [2] | Fluorescence peaks Stokes Δλ [2] [nm] | Rayleigh scattering peaks Intensity (F) [2] | Fluorescence peaks Intensity (F) [3] | Fluorescence peaks Peak position λex/λem [3] | Fluorescence peaks Stokes Δλ [3] [nm] | Rayleigh scattering peaks Intensity (F) [3] | IC50 [4] [µM] | Total antioxidant capacity [5]
CCNC1=N[N+]2=C(C)c3[c](c4ccc(OC)cc4oc3=O)[Ru-4]2([C]#[O+])([P+](c2ccccc2)(c2ccccc2)c2ccccc2)([P+](c2ccccc2)(c2ccccc2)c2ccccc2)[S]1 [Complex 3, [Ru(7MAC-etsc)(CO)(PPh3)2]] | 1.4428 ± 0.279 × 10^6 M^−1 | 304.43 | 280/339 | 59 | 958.23 | 266.21 | 280/337 | 57 | 612.58 | 5.28 ± 0.24 | 62.71 ± 0.37 μg ascorbic acid equivalents/ml
CNC1=N[N+]2=C(C)c3[c](c4ccc(OC)cc4oc3=O)[Ru-4]2([C]#[O+])([P+](c2ccccc2)(c2ccccc2)c2ccccc2)([P+](c2ccccc2)(c2ccccc2)c2ccccc2)[S]1 [Complex 2, [Ru(7MAC-mtsc)(CO)(PPh3)2]] | 1.3958 ± 0.320 × 10^6 M^−1 | 372.76 | 280/339 | 59 | 837.83 | 269.53 | 280/331 | 51 | 790.59 | 6.75 ± 0.18 | 58.27 ± 0.46 μg ascorbic acid equivalents/ml
COc1ccc2[c]3c(c(=O)oc2c1)C(C)=[N+]1N=C(N)[S][Ru-4]31([C]#[O+])([P+](c1ccccc1)(c1ccccc1)c1ccccc1)[P+](c1ccccc1)(c1ccccc1)c1ccccc1 [Complex 1, [Ru(7MAC-tsc)(CO)(PPh3)2]] | 1.2544 ± 0.304 × 10^6 M^−1 | 395.56 | 280/338 | 58 | 867.32 | 268.14 | 280/335 | 55 | 652.04 | 7.13 ± 0.23 | 54.13 ± 0.28 μg ascorbic acid equivalents/ml
COc1ccc2[c]3c(c(=O)oc2c1)C(C)=[N+]1N=C(Nc2ccccc2)[S][Ru-4]31([C]#[O+])([P+](c1ccccc1)(c1ccccc1)c1ccccc1)[P+](c1ccccc1)(c1ccccc1)c1ccccc1 [Complex 4, [Ru(7MAC-ptsc)(CO)(PPh3)2]] | 1.0636 ± 0.334 × 10^6 M^−1 | 368.76 | 280/340 | 60 | 741.59 | 276.12 | 280/332 | 52 | 830.46 | 7.39 ± 0.14 | 54.99 ± 0.65 μg ascorbic acid equivalents/ml
